Marks after values point to notes of the source that are not given here.
Key:
Format in all cases: in vivo
[1] = test system: Taxol-induced neuropathic pain; assay: Taxol-induced neuropathic pain in mice, oral route
Method: (§1) Study outline in brief: Animals were dosed daily with Taxol for a period of 8 consecutive days (Day 0 to Day 7). On study day 8, prior to drug dosing, the decrease in withdrawal force (tactile allodynia) was verified by applying the von Frey test. After assigning the animals to their treatment groups, the animals were treated daily for a period of 5 days with either vehicle or Formula 1 at different doses. Gabapentin at a dose of 150 mg/kg was dosed only on days of testing (day 8 and day 14).
The activity of Formula 1 following oral administration was assessed using the Taxol model (see Study Outline in section 7.1). […] Gabapentin dosed at 150 mg/kg was active for a period of 4 h post-dosing.

[2] = test system: Taxol-induced neuropathic pain; assay: Taxol-induced neuropathic pain in mice, SC administration
Method: as §1
Response to heat stimuli was assessed using the hotplate apparatus set at 50ΥC. […] At baseline prior to Taxol dosing, the animals' response time to heat was 28.10±1.60 sec (vehicle-treated group). […] However, it is interesting to note that the beneficial activity of Formula 1 on heat hyperalgesia was more noticeable on study day 14, following repeated daily dosing of the compound, than on study day 8 following a single dose (Table 6).

[3] = test system: CCI-induced neuropathic pain; assay: Chronic constriction injury (CCI) model in mice, SC route; details: for Dose of maximum activity / Duration of activity at maximum effect / Level of activity (% of maximum effect-baseline) / Peak of activity (T): CCl model, SC, mice
Method: Study outline in brief: The sciatic nerve of mice was exposed under anesthesia, and 3 loose ligations were placed around the nerve. Animals were allowed to recover for 3 days. Tactile allodynia (von Frey testing) and thermal (hot at 50±1° C. and cold at 2±1° C.) hyperalgesia were then assessed. Animals that experienced tactile allodynia were assigned to their treatment groups (vehicle, gabapentin and Formula 1 at different doses). Animals were subsequently treated daily for a period of 5 days with either vehicle or Formula 1 at different doses. Gabapentin at a dose of 150 mg/kg was dosed only on days of testing (day 3 and day 7).

[4] = test system: CCI-induced neuropathic pain; assay: CCI model in mice, IP route; details: CCl model
Excerpt: IP route of administration was used for initial proof of principle studies with Formula 1. However, the chosen route of administration in most of the studies conducted with Formula 1 was either SC or PO. A brief protocol outline is provided in each section, for the purpose of understanding the results without elaborating on all the detailed procedures.
Table 7 summarizes the activity of Formula 1 in mice models of neuropathic pain following repeated daily administration using different routes of administration. […] Treatment with Formula 1 show activity without CNS effect.

Structure (SMILES): NCC1(CC(=O)O)CCCCC1 [Gabapentin, gabapentin, reference compound]
- period of activity post-dosing ([1]; Taxol mice, 150 mg/kg): 4 h
- Dose of maximum activity ([1]; Taxol model, PO, mice): 150 mg/kg
- Duration of activity at maximum effect ([1]; Taxol model, PO, mice): 4 H
- Level of activity (% of maximum effect-baseline) ([1]; Taxol model, PO, mice): 100%
- Peak of activity (T) ([1]; Taxol model, PO, mice): 2-4 H
- response time to heat (50° C.), Mean ([2]; 150 mg/kg, Day 0 Pre-Taxol): 28.5 s
- response time to heat (50° C.), Mean ([2]; 150 mg/kg, Day 8, 1 h): 18.9* sec
- response time to heat (50° C.), Mean ([2]; 150 mg/kg, Day 8, 2 h): 22.5* sec
- response time to heat (50° C.), Mean ([2]; 150 mg/kg, Day 8, 4 h): 16.7 s
- response time to heat (50° C.), Mean ([2]; 150 mg/kg, Day 8, 6 h): 13.8 s
- response time to heat (50° C.), Mean ([2]; 150 mg/kg, Day 8 Pre-dosing): 11.1 s
- response time to heat (50° C.), Mean ([2]; 150 mg/kg, Day 14, 1 h): 25.1* sec
- response time to heat (50° C.), Mean ([2]; 150 mg/kg, Day 14, 2 h): 25.0 s
- response time to heat (50° C.), Mean ([2]; 150 mg/kg, Day 14, 4 h): 25.1* sec
- response time to heat (50° C.), Mean ([2]; 150 mg/kg, Day 14, 6 h): 18.7* sec
- response time to heat (50° C.), Mean ([2]; 150 mg/kg, Day 14 Pre-dosing): 11.2 s
- response time to heat (50° C.), Mean ([2]; 150 mg/kg, Day 17, No dosing): 11.5 s
- period of increase in withdrawal force (von Frey) ([2]; Taxol mice, 150 mg/kg): 4 h
- Dose of maximum activity ([2]; Taxol model, SC, mice): 150 mg/kg
- Duration of activity at maximum effect ([2]; Taxol model, SC, mice): 4 H
- Level of activity (% of maximum effect-baseline) ([2]; Taxol model, SC, mice): 100%
- Peak of activity (T) ([2]; Taxol model, SC, mice): 2-4 H
- response time to cold plate ([3]; CCI mice, 150 mg/kg): increased the response time of the animals to values that were higher than the baseline value
- withdrawal force (von Frey) ([3]; CCI mice, 150 mg/kg): significant, but not complete, reversal
- Dose of maximum activity ([3]; first SC line): 150 mg/kg
- Duration of activity at maximum effect ([3]; first SC line): 4-6 H
- Level of activity (% of maximum effect-baseline) ([3]; first SC line): 64%
- Peak of activity (T) ([3]; first SC line): 2-3 H
- Level of activity (% of maximum effect-baseline) ([3]; second SC line (readout not given)): >100%
- Dose of maximum activity ([3]; second SC line): 150 mg/kg
- Duration of activity at maximum effect ([3]; second SC line): 4-6 H
- Peak of activity (T) ([3]; second SC line): 2-3 H
- Dose of maximum activity [4]: 150 mg/kg
- Duration of activity at maximum effect [4]: 4-6 H
- Peak of activity (T) [4]: 2-3 H
- Level of activity (% of maximum effect-baseline) ([4]; repeated daily administration): 66%
